Assay results reported in patent US20200352976A1, “HYPOMETHYLATING AGENTS FOR USE IN TREATMENT OF CANCER” (Otsuka Pharmaceutical Co., Ltd, priority 2019, published 2020).

Tests used:
Type in all cases: in vivo, human
[1] = Phase 3 trial pharmacokinetics and exposure response
Procedure: A previously developed Population PK model was applied to calculate model-derived estimates for total cycle exposures (Cmax and AUC) from sparse PK samples collected in Cycle 1 for Compound I-1 and decitabine for use in exposure-response analysis for efficacy and safety. The analyses of exposure-efficacy and exposure-safety relationships were performed separately for patients who received Compound I-1 and patients who received decitabine IV. The following analyses were performed to assess relationships of CR with exposure for each exposure measure: frequencies of CR were tabulated and compared between tertiles of exposure; distributions of exposure were compared for patients with and without CR using box plots; and probability of CR was explored using logistic regression models.

[2] = test system: LINE-1 repeats (global DNA methylation); test: LINE-1 methylation assay on whole blood (global DNA methylation), Phase 1/2 trial
Procedure: Whole-blood samples were collected immediately before treatment, once a week during the first treatment cycle, and then on day 1 of subsequent cycles for demethylation analysis. Global DNA methylation was measured by the long interspersed nuclear element-1 (LINE-1) methylation assay. The LINE-1 assay measures methylation levels of LINE-1 repeats, which serve as a surrogate for global DNA methylation levels. Results of LINE-1 assays were used to assess and changes in methylation from baseline.
Activity and safety endpoints were evaluated for all patients who received at least one dose of study drug, and no patients who received treatment were excluded from the analyses. […] Time to response and duration of response were summarized in days using descriptive statistics. Overall survival was analyzed using the Kaplan-Meier method, with survival time censored on the last date of contact if the patient was alive or lost to follow-up. Blood and platelet transfusion independence were summarized descriptively in the subset of patients who were transfusion-dependent at baseline. Change from baseline LINE-1 methylation and maximum LINE-1 demethylation were also summarized descriptively, with maximum LINE-1 demethylation defined as the largest percent decrease from baseline in methylation values by patient between days 8 and 22 of the first treatment cycle.

[3] = test system: intermediate-risk or high-risk myelodysplastic syndromes (MDS) or chronic myelomonocytic leukemia (CMML); test: Phase 1/2 trial (Phase 2 portion) with subgroup and landmark analyses: response, survival, transfusion independence; conditions: for Median survival: all 102 patients
Procedure: A multicenter, open-label, randomized, phase 1/2 trial was performed with Compound I-1 to compare the activity and safety of two doses of Compound I-1 in hypomethylating agent treatment naïve or relapsed or refractory patients with intermediate-risk or high-risk myelodysplastic syndromes.
Patients enrolled in the study were aged 18 years or older, with a confirmed diagnosis of IPSS intermediate-1, intermediate-2, or high-risk myelodysplastic syndromes (MDS), or chronic myelomonocytic leukemia (CMML). Patients were either hypomethylating agent treatment-naïve or had relapsed or refractory disease after previous hypomethylating agent treatment as determined by the investigators' judgment (two or more complete full-dose cycles of a hypomethylating agent). The IPSS score in patients with relapsed or refractory myelodysplastic syndromes had been established at the time of their initial diagnosis. Eligible patients had Eastern Cooperative Oncology Group performance status of 0-2; adequate renal function (serum creatinine ≤1.5-times the upper limit of normal [ULN]) and adequate hepatic function (total bilirubin ≤2-times the ULN, and aspartate and alanine transaminases ≤2.5-times the ULN); had not undergone major surgery within 4 weeks or hemopoietic stem-cell transplantation within 8 weeks; or received chemotherapy within 2 weeks or nitrosoureas within 6 weeks of Compound I-1 treatment (hydroxycarbamide was allowed during treatment cycle 1). A patient with previous allogeneic stem-cell transplants was only eligible if the patient had no evidence of active graft-versus-host disease and had discontinued immunosuppressive therapy 2 weeks or more before receiving the study drug.
Patients received subcutaneous Compound I-1 at 60 or 90 mg/m^2 on days 1-5 of a 28-day treatment cycle. The intention was to provide the standard planned dose for four or more cycles; dose reduction could be instituted, as necessary, and the length of treatment cycles could be extended up to 42 days to allow for bone-marrow recovery in cases of severe cytopenia. Additional delay or dose reduction was allowed for recovery from toxicity in previous cycles based on the physician's judgment.
Hematological responses were monitored by analysis of blood and bone marrow aspiration. After the initial bone marrow aspirate screening at baseline, the results of peripheral blood assessments determined the frequency of subsequent bone marrow aspiration to confirm response or assess drug-related bone marrow toxicity. Complete peripheral blood counts and white blood cell differentials were measured at least once a week, including granulocyte numbers, platelet numbers, and hemoglobin concentration.
The primary endpoint was overall response, which was a composite of complete response (CR), partial response, marrow complete response (mCR), and hematological improvement. Overall response was assessed by local investigators. Secondary endpoints included the individual components of overall response, time to response, duration of response, overall survival, blood transfusion and platelet transfusion independence at weeks 8 and 16, and safety, including the incidence of adverse events, and all-cause early mortality at 30, 60, and 90 days. Exploratory analyses were done to examine the association between baseline characteristics and overall response.
Activity and safety endpoints were evaluated for all patients who received at least one dose of study drug, and no patients who received treatment were excluded from the analyses. […] Time to response and duration of response were summarized in days using descriptive statistics. Overall survival was analyzed using the Kaplan-Meier method, with survival time censored on the last date of contact if the patient was alive or lost to follow-up. Blood and platelet transfusion independence were summarized descriptively in the subset of patients who were transfusion-dependent at baseline. […]

[4] = landmark analysis, at least 4 cycles (65 patients)

Nc1ncn([C@H]2CC(OP(=O)(O)OC[C@H]3O[C@@H](n4cnc5c(=O)[nH]c(N)nc54)CC3O)[C@@H](CO)O2)c(=O)n1 (stereo partly shown) [Compound I-1]
Exposure to active metabolite decitabine ([1]; Compound I-1 SC vs decitabine IV): longer exposure to the active metabolite decitabine | Time of highest mean plasma Compound I-1 concentration (first collection time point) ([1]; after SC injection): 1.5 h | Mean maximum LINE-1 demethylation ([2]; 60 mg/m^2): 23.9% | Mean maximum LINE-1 demethylation ([2]; 90 mg/m^2): 28.2% | Mean maximum LINE-1 demethylation ([2]; relapsed or refractory): 28.9% | Time of maximum extent of global DNA demethylation ([2]; returned to pretreatment levels by day 28): ~8 days | Mean maximum LINE-1 demethylation ([2]; treatment-naïve): 28.6% | Mean maximum LINE-1 demethylation ([2]; with objective treatment response): 28.1% | Mean maximum LINE-1 demethylation ([2]; without objective treatment response): 29.4% | 12-month survival ([3]; 60 mg/m^2): 67% | 24-month survival ([3]; 60 mg/m^2): 39% | Duration of response ([3]; 60 mg/m^2): 295 days | Median overall survival ([3]; 60 mg/m^2): 611 days | Partial response ([3]; 60 mg/m^2 (n = 53)): 0 patients | 12-month survival ([3]; 90 mg/m^2): 60% | 24-month survival ([3]; 90 mg/m^2): 30% | Duration of response ([3]; 90 mg/m^2): 207 days | Median overall survival ([3]; 90 mg/m^2): 399 days | Partial response ([3]; 90 mg/m^2 (n = 49)): 0 patients | Median survival ([3]; 4 or more treatment cycles): 20.4 months | OS ([3]; 6 or more treatment cycles): 23.8 months | OS hazard ratio ([3]; 6 or more vs less than 6 treatment cycles): 0.41 | Partial response ([3]; All patients (n = 102)): 0 patients | Median OS ([3]; Baseline BM Blasts >5%): 12.3 months | Median OS ([3]; Baseline BM Blasts ≤5%): 22.7 months | Median OS ([3]; Baseline ECOG PS 0-1): 15.6 months | Median OS ([3]; Baseline ECOG PS 2): 8.7 months | Median OS ([3]; Baseline RBCs Transfusion Dependent): 11.7 months | Median OS ([3]; Baseline RBCs Transfusion Independent): 20.4 months | Partial response ([3]; Relapsed or refractory (n = 53)): 0 patients | Median OS ([3]; TN MDS/CMML patients): 23.4 months | Partial response ([3]; Treatment-naïve (n = 49)): 0 patients | Survival hazard ratio ([3]; at least 4 vs less than 4 treatment cycles): 0.55 | Median duration of complete, partial or marrow complete response ([3]; entire population): 203 days | Median overall survival ([3]; entire study population): 460 days | Median OS ([3]; landmark analysis, <4 cycles): 15.2 m | Objective response (OR) rate ([3]; landmark analysis, <4 cycles (26 patients)): 15% | Median OS ([3]; landmark analysis, <6 cycles): 13.6 m | Objective response (OR) rate ([3]; landmark analysis, <6 cycles (43 patients)): 26% | Median OS ([3]; landmark analysis, at least 4 cycles): 20.4 m | Objective response [3, 4]: 44 patients | Objective response (OR) rate [3, 4]: 68% | OS HR ([3]; landmark analysis, at least 4 vs <4 cycles): 0.78 | Median OS ([3]; landmark analysis, at least 6 cycles): 23.8 m | Objective response (OR) rate ([3]; landmark analysis, at least 6 cycles (44 patients)): 82% | OS HR ([3]; landmark analysis, at least 6 vs <6 cycles): 0.51 | OS HR ([3]; landmark, absence of objective response, at least 4 vs <4 cycles): 0.82 | OS HR ([3]; landmark, absence of objective response, at least 6 vs <6 cycles): 0.42 | Median survival ([3]; less than 4 treatment cycles): 8.7 months | OS ([3]; less than 6 treatment cycles): 9.1 months | Median time to response ([3]; patients with CR or marrow CR, entire study population): 85 days | Median OS ([3]; r/r MDS/CMML patients): 11.7 months | 2-year survival rate ([3]; relapsed or refractory cohort): 25% | Median overall survival ([3]; relapsed or refractory cohort): 352 days | Median overall survival ([3]; relapsed/refractory, 60 mg/m^2): 9.1 months | Median overall survival ([3]; relapsed/refractory, 90 mg/m^2): 12.3 months | 2-year survival rate ([3]; treatment-naïve cohort): 44% | Median overall survival ([3]; treatment-naïve cohort): 703 days
